From US10815274B2, “Immunogenic WT-1 peptides and methods of use thereof” (Memorial Sloan Kettering Cancer Center, priority 2012, dated 2020)
Where a SMILES comes first, the peptide text is derived from it.

Columns and labels:
Conditions in all cases: 50:1 E:T
[1] = system: WT1 peptide loaded autologous APC; experiment: Cr51 release assay, cytotoxic CTL response vs peptide loaded autologous APC; assay type: cell-based, human
WT1- leukemia = experiment: Cr51 release assay, cytotoxic CTL response vs WT1- leukemia; assay type: cell-based, human
Description: (§1) Twenty-four primary leukemic cells and 1 leukemic cell line were characterized for their expression of WT1 by intracellular FACS staining using murine anti-human WT1 monoclonal antibodies (Neomarkers, Fremont, Calif.) as previously described (32,38) The WT1+ leukemias included blast cells from 11 primary AMLs, 3 primary ALLs and 1B-cell precursor ALL cell line. Ten WT1-leukemias, were used as controls, and included 3 B-cell precursor ALLs and 7 AMLs.

[2] = system: WT1+ allo APC with restricting HLA allele loaded with WT1 peptide; experiment: Cr51 release assay, cytotoxic CTL response vs peptide loaded allogeneic APC sharing restricting HLA allele (HLA restriction)
WT1- autologous APC = experiment: Cr51 release assay, cytotoxic CTL response vs unmodified autologous APC; assay type: cell-based, human
[3] = system: WT1- allo APC with restricting HLA allele; experiment: Cr51 release assay, cytotoxic CTL response vs unloaded allogeneic APC sharing restricting HLA allele; assay type: cell-based, human
WT1+ leukemia = experiment: Cr51 release assay, cytotoxic CTL response vs WT1+ leukemia expressing restricting HLA allele; assay type: cell-based, human
Description: as §1
PHA blasts were not available from every patient that provided leukemia blasts for this study.

SMILES: CC(C)C[C@H](NC(=O)[C@H](CC(C)C)NC(=O)[C@H](CC(C)C)NC(=O)[C@H](C)NC(=O)[C@H](CCC(N)=O)NC(=O)[C@H](CO)NC(=O)CNC(=O)[C@@H](NC(=O)[C@@H](N)CS)[C@@H](C)O)C(=O)O [SEQ ID NO: 167] (H-CTGSQALLL-OH; N-terminus and C-terminus assumed)
- Cytotoxic CTL response, % vs WT1 peptide loaded autologous APC ([1]; HLA allele A0101): 21%
- Cytotoxic CTL response, % vs WT1- leukemia (WT1- leukemia; HLA allele A0101): 3%
- Cytotoxic CTL response, % vs WT1+ allo APC with restricting HLA allele loaded with WT1 peptide ([2]; HLA allele A0101): 26%
- Cytotoxic CTL response, % vs WT1- autologous APC (WT1- autologous APC; HLA allele A0101): 0%
- Cytotoxic CTL response, % vs WT1- allo APC with restricting HLA allele ([3]; HLA allele A0101): 0%
- Cytotoxic CTL response, % vs WT1+ leukemia (WT1+ leukemia; HLA allele A0101): 33%

SMILES: C[C@H](NC(=O)[C@H](CCC(N)=O)NC(=O)[C@H](CO)NC(=O)CNC(=O)[C@@H](NC(=O)[C@H](CS)NC(=O)[C@H](CO)NC(=O)[C@H](CC(=O)O)NC(=O)[C@@H](N)[C@@H](C)O)[C@@H](C)O)C(=O)O [SEQ ID NO: 168] (H-TDSCTGSQA-OH; N-terminus and C-terminus assumed)
- Cytotoxic CTL response, % vs WT1 peptide loaded autologous APC ([1]; HLA allele B3802): 88%
- Cytotoxic CTL response, % vs WT1 peptide loaded autologous APC ([1]; HLA allele B4402): 36%
- Cytotoxic CTL response, % vs WT1- leukemia (WT1- leukemia; HLA allele B4402): 1%
- Cytotoxic CTL response, % vs WT1+ allo APC with restricting HLA allele loaded with WT1 peptide ([2]; HLA allele B3802): 53%
- Cytotoxic CTL response, % vs WT1+ allo APC with restricting HLA allele loaded with WT1 peptide ([2]; HLA allele B4402): 88%
- Cytotoxic CTL response, % vs WT1- autologous APC (WT1- autologous APC; HLA allele B3802): 0%
- Cytotoxic CTL response, % vs WT1- autologous APC (WT1- autologous APC; HLA allele B4402): 1%
- Cytotoxic CTL response, % vs WT1- allo APC with restricting HLA allele ([3]; HLA allele B3802): 1%
- Cytotoxic CTL response, % vs WT1- allo APC with restricting HLA allele ([3]; HLA allele B4402): 0%
- Cytotoxic CTL response, % vs WT1+ leukemia (WT1+ leukemia; HLA allele B4402): 56%

SMILES: CSCC[C@H](NC(=O)[C@H](CCC(N)=O)NC(=O)[C@H](CC(N)=O)NC(=O)[C@@H](N)Cc1c[nH]c2ccccc12)C(=O)N[C@@H](CC(N)=O)C(=O)N[C@@H](CC(C)C)C(=O)NCC(=O)N[C@@H](C)C(=O)N[C@H](C(=O)O)[C@@H](C)O [SEQ ID NO: 171] (H-WNQMNLGAT-OH; N-terminus and C-terminus assumed)
- Cytotoxic CTL response, % vs WT1 peptide loaded autologous APC ([1]; HLA allele A0101): 26%
- Cytotoxic CTL response, % vs WT1 peptide loaded autologous APC ([1]; HLA allele A0201): 18%
- Cytotoxic CTL response, % vs WT1 peptide loaded autologous APC ([1]; HLA allele B3508): 18%
- Cytotoxic CTL response, % vs WT1 peptide loaded autologous APC ([1]; HLA allele C1701): 10%
- Cytotoxic CTL response, % vs WT1- leukemia (WT1- leukemia; HLA allele A0201): 1%
- Cytotoxic CTL response, % vs WT1- leukemia (WT1- leukemia; HLA allele B3508): 4%
- Cytotoxic CTL response, % vs WT1- leukemia (WT1- leukemia; HLA allele C1701): 1%
- Cytotoxic CTL response, % vs WT1+ allo APC with restricting HLA allele loaded with WT1 peptide ([2]; HLA allele A0101): 19%
- Cytotoxic CTL response, % vs WT1+ allo APC with restricting HLA allele loaded with WT1 peptide ([2]; HLA allele A0201): 21%
- Cytotoxic CTL response, % vs WT1+ allo APC with restricting HLA allele loaded with WT1 peptide ([2]; HLA allele B3508): 21%
- Cytotoxic CTL response, % vs WT1+ allo APC with restricting HLA allele loaded with WT1 peptide ([2]; HLA allele C1701): 7%
- Cytotoxic CTL response, % vs WT1- autologous APC (WT1- autologous APC; HLA allele A0101): 0%
- Cytotoxic CTL response, % vs WT1- autologous APC (WT1- autologous APC; HLA allele A0201): 0%
- Cytotoxic CTL response, % vs WT1- autologous APC (WT1- autologous APC; HLA allele B3508): 0%
- Cytotoxic CTL response, % vs WT1- autologous APC (WT1- autologous APC; HLA allele C1701): 0%
- Cytotoxic CTL response, % vs WT1- allo APC with restricting HLA allele ([3]; HLA allele A0101): 3%
- Cytotoxic CTL response, % vs WT1- allo APC with restricting HLA allele ([3]; HLA allele A0201): 0%
- Cytotoxic CTL response, % vs WT1- allo APC with restricting HLA allele ([3]; HLA allele B3508): 2%
- Cytotoxic CTL response, % vs WT1- allo APC with restricting HLA allele ([3]; HLA allele C1701): 0%
- Cytotoxic CTL response, % vs WT1+ leukemia (WT1+ leukemia; HLA allele A0201): 19%
- Cytotoxic CTL response, % vs WT1+ leukemia (WT1+ leukemia; HLA allele B3508): 19%
- Cytotoxic CTL response, % vs WT1+ leukemia (WT1+ leukemia; HLA allele C1701): 16%

SMILES: CSCC[C@H](NC(=O)[C@H](CCC(N)=O)NC(=O)[C@@H](N)CC(N)=O)C(=O)N[C@@H](CC(N)=O)C(=O)N[C@@H](CC(C)C)C(=O)NCC(=O)N[C@@H](C)C(=O)N[C@H](C(=O)N[C@@H](CC(C)C)C(=O)O)[C@@H](C)O [SEQ ID NO: 172] (H-NQMNLGATL-OH; N-terminus and C-terminus assumed)
- Cytotoxic CTL response, % vs WT1 peptide loaded autologous APC ([1]; HLA allele A2402): 9%
- Cytotoxic CTL response, % vs WT1- leukemia (WT1- leukemia; HLA allele A2402): 1%
- Cytotoxic CTL response, % vs WT1+ allo APC with restricting HLA allele loaded with WT1 peptide ([2]; HLA allele A2402): 2%
- Cytotoxic CTL response, % vs WT1- autologous APC (WT1- autologous APC; HLA allele A2402): 4%
- Cytotoxic CTL response, % vs WT1- allo APC with restricting HLA allele ([3]; HLA allele A2402): 0%
- Cytotoxic CTL response, % vs WT1+ leukemia (WT1+ leukemia; HLA allele A2402): 17%

SMILES: CSCC[C@H](NC(=O)[C@H](CCC(N)=O)NC(=O)[C@H](CC(N)=O)NC(=O)[C@@H](N)Cc1c[nH]c2ccccc12)C(=O)N[C@@H](CC(N)=O)C(=O)N[C@@H](CC(C)C)C(=O)NCC(=O)N[C@@H](C)C(=O)N[C@H](C(=O)N[C@@H](CC(C)C)C(=O)N[C@@H](CCCCN)C(=O)O)[C@@H](C)O [SEQ ID NO: 173] (H-WNQMNLGATLK-OH; N-terminus and C-terminus assumed)
- Cytotoxic CTL response, % vs WT1 peptide loaded autologous APC ([1]; HLA allele DRB11104): 8%
- Cytotoxic CTL response, % vs WT1- leukemia (WT1- leukemia; HLA allele DRB11104): 0%
- Cytotoxic CTL response, % vs WT1+ allo APC with restricting HLA allele loaded with WT1 peptide ([2]; HLA allele DRB11104): 1%
- Cytotoxic CTL response, % vs WT1- autologous APC (WT1- autologous APC; HLA allele DRB11104): 0%
- Cytotoxic CTL response, % vs WT1- allo APC with restricting HLA allele ([3]; HLA allele DRB11104): 2%
- Cytotoxic CTL response, % vs WT1+ leukemia (WT1+ leukemia; HLA allele DRB11104): 0%

SMILES: CC(C)C[C@H](NC(=O)[C@@H](NC(=O)[C@H](C)NC(=O)CNC(=O)[C@H](CC(C)C)NC(=O)[C@@H](N)CC(N)=O)[C@@H](C)O)C(=O)N[C@@H](CCCCN)C(=O)NCC(=O)N[C@H](C(=O)O)C(C)C [SEQ ID NO: 175] (H-NLGATLKGV-OH; N-terminus and C-terminus assumed)
- Cytotoxic CTL response, % vs WT1 peptide loaded autologous APC ([1]; HLA allele A0101): 19%
- Cytotoxic CTL response, % vs WT1 peptide loaded autologous APC ([1]; HLA allele A0201): 18%
- Cytotoxic CTL response, % vs WT1- leukemia (WT1- leukemia; HLA allele A0201): 2%
- Cytotoxic CTL response, % vs WT1+ allo APC with restricting HLA allele loaded with WT1 peptide ([2]; HLA allele A0101): 17%
- Cytotoxic CTL response, % vs WT1+ allo APC with restricting HLA allele loaded with WT1 peptide ([2]; HLA allele A0201): 14%
- Cytotoxic CTL response, % vs WT1- autologous APC (WT1- autologous APC; HLA allele A0101): 2%
- Cytotoxic CTL response, % vs WT1- autologous APC (WT1- autologous APC; HLA allele A0201): 1%
- Cytotoxic CTL response, % vs WT1- allo APC with restricting HLA allele ([3]; HLA allele A0101): 1%
- Cytotoxic CTL response, % vs WT1- allo APC with restricting HLA allele ([3]; HLA allele A0201): 1%
- Cytotoxic CTL response, % vs WT1+ leukemia (WT1+ leukemia; HLA allele A0201): 19%
